Data published in patent US11542271B2, “Fused heteroaromatic-aniline compounds for treatment of dermal disorders” (NFlection Therapeutics, Inc., priority 2017, dated 2023).
“Also recorded” adds a separate entry of the source.

What was measured:
MAP2K1 (MEK1) = molecular target: T1, MAP2K1 (MEK1) (Homo sapiens, UniProt Q02750); assay: MEK Inhibition Assay (Biological Example 1b, Z'-LYTE); settings: Biological Example 1b (compounds 1, 3, 5, 7-8); read-out: Assay 1: biochemical MEK IC50
T1 construct: purchased ThermoFisher
Procedure: MEK1 inhibitory activity of compounds were tested using the following procedure (protocol available at thermofisher.com/content/dam/LifeTech/migration/files/drug-discovery/pdfs.par.60256.file.dat/20130430%20ssbk%20customer%20protocol%20and%20assay%20conditions.pdf). The Z′-LYTE biochemical assay (ThermoFisher) employs a fluorescence-based, coupled-enzyme format and is based on the differential sensitivity of phosphorylated and non-phosphorylated peptides to proteolytic cleavage.
Test compounds in 100% DMSO were screened in 1% DMSO (final) in the well. For 10 point titrations, 3-fold serial dilutions are conducted from the starting concentration of 30 μM.
After the 1 hour incubation, 5 μL of a 1:1024 dilution of Development Reagent A (available from Invitrogen, catalog no. PV3295) was added.
ATP solutions were diluted to a 4× working concentration in Kinase Buffer (50 mM HEPES pH 7.5, 0.01% BRIJ-35, 10 mM MgCl2, 1 mM EGTA). ATP Km apparent was previously determined using a Z′-LYTE assay. The Development Reagent was diluted in Development Buffer (available from Invitrogen, catalog no. P3127).
Assay Protocol: 2.5 μL of 4× test compound or 100 nL of 100× Test Compound plus 2.4 μL Kinase Buffer, 5 μL of the 2× Peptide/Kinase Mixture, 2.5 μL of 4×ATP Solution were added to the plates and placed on a shake plate for 30-seconds. The kinase reaction was allowed to proceed for 60-minute at room temperature, before 5 μL of Development Reagent Solution was added, and the mixture agitated for 30-seconds on a shake plate. The mixture was incubated for 60-minute at room temperature. Fluorescence was measured using a plate reader and the data were analyzed.
This control yielded 100% cleaved peptide in the Development Reaction. The 100% Phosphorylation Control, which consisted of a synthetically phosphorylated peptide of the same sequence as the peptide substrate, was designed to allow for the calculation of percent phosphorylation. This control yielded a very low percentage of cleaved peptide in the Development Reaction. The 0% Phosphorylation and 100% Phosphorylation Controls allow for the calculation of the percent phosphorylation achieved in a specific reaction well.
The minimum emission ratio in a screen was established by the 0% Inhibition Control, which contained active kinase. This control was designed to produce a 10-50% phosphorylated peptide in the Kinase Reaction. Cascade assays may produce up to 70% phosphorylated peptide.
A known inhibitor control standard curve, 10 point titration, was run for each individual kinase on the same plate as the kinase to ensure the kinase was inhibited within an expected IC50 range previously determined.
The following controls are prepared for each concentration of Test Compound assayed. […] The expected value for a non-interfering compound should be 100%. Any value outside of 90% to 110% was flagged. […] The expected value for a non-fluorescence compound should be 0%. Any value >20% was flagged.
The data in Table A was calculated. XLfit from IDBS was used. The dose response curve was curve fit to model number 205 (sigmoidal dose-response model).

[1] = S9 Stability Assay, human liver S9 fraction; format: in vitro ADME
Procedure: Compounds were assessed for metabolic stability in human skin by assessing their rate of disappearance from human S9 skin fraction. Similarly, compounds were assessed for metabolic stability in human liver by assessing their rate of disappearance from human S9 liver fraction. The protocol below can be used to assess the difference between skin and hepatic metabolism.
The assay was carried out in 96-well microtiter plates at 37° C. Reaction mixtures (25 μL) contained a final concentration of 1 μM test compound, 2 mg/mL liver or skin S9 protein, and 1 mM NADPH in buffer (100 mM potassium phosphate, pH 7.4 buffer with 1 mM EDTA, 3 mM MgCl2). At each of the time points (0, 15, 30, and 60 minutes), 150 μL of quench solution (100% acetonitrile with 0.1% formic acid) with internal standard was transferred to each well. Besides the zero minute controls, mixtures containing the same components except the NADPH were also prepared as the negative control. Verapamil or testosterone was included as a positive control to verify assay performance. Plates were sealed and centrifuged at 4° C. for 15 minutes at 4000 rpm. The supernatant was transferred to fresh plates for LC/MS/MS analysis.
All samples were analyzed on LC/MS/MS using an AB Sciex API 4000 instrument, coupled to a Shimadzu LC-20AD LC Pump system. Analytical samples were separated using a Waters Atlantis T3 dC18 reverse phase HPLC column (20 mm×2.1 mm) at a flow rate of 0.5 mL/min. The mobile phase consisted of 0.1% formic acid in water (solvent A) and 0.1% formic acid in 100% acetonitrile (solvent B).
The extent of metabolism was calculated as the disappearance of the test compound, compared to the 0-min control reaction incubations. Initial rates were calculated for the compound concentration and used to determine t1/2 values and subsequently, the intrinsic clearance, CLint=(0.693) (1/t1/2 (min)) (mL incubation/mg of S9 protein).

[2] = tested on: p-ERK in human cutaneous neurofibroma explants; assay: Human cutaneous neurofibroma explant p-ERK suppression (Biological Example 7); format: cell-based; settings: topical gel formulation (1%), harvested at 4 hours, vs vehicle gel
Description: The primary objective was to assess the efficacy of a topically-formulated compound described herein in suppressing p-ERK, a downstream biomarker of RAS/MAPK signaling in neurofibroma explants. The secondary objectives was to assess permeability (where the compound was applied topically) of neurofibroma explants treated with a compound described herein.
Primary dermal neurofibromas or cutaneous neurofibromas were obtained from patients with clinical or genetic diagnoses of NF1. Discarded human neurofibromas samples were obtained from the Stanford Surgery Clinic, using an approved human subjects protocol (Stanford IRB #18325). Specimens were identified under the direction of the Principal Investigator and placed in cell proliferation media (DMEM/F12 containing penicillin/streptomycin (0.1%); fungizone (40 μg/mL); B27 (without vitamin A).
Specimens were identified under the direction of the Principal Investigator
Specimens were chopped into 2 mm fragments and placed in 24-well plates containing cell proliferation media (DMEM/F12 containing penicillin/streptomycin (0.1%); fungizone (40 μg/mL); B27 (without vitamin A) and submerged in media with drug. For topical gel application, samples were placed in 96 well plates with epidermal surface exposed to air. […]

C57BL/6J mice = assay: In vivo mouse model of skin and systemic toxicity (Biological Example 6b); settings: topically applied 1%, twice daily 5 days per week
Procedure: These mice are also shaved weekly.
Biological Example 6b was carried out with the following arms: oral vehicle, oral Trametinib, topical vehicle, and topical Trametinib (1%).

T1 sequence (Q02750 whole entry): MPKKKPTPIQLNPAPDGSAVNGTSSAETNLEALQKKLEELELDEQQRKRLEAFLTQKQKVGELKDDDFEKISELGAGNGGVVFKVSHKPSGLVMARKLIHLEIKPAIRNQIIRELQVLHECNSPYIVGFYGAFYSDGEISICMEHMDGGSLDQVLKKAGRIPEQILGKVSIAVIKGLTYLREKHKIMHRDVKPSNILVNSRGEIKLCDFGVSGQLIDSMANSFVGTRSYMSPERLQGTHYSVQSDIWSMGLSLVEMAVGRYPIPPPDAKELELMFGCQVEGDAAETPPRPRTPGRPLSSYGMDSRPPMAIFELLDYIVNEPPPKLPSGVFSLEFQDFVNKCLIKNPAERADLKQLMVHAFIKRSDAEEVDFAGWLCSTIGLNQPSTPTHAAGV

Row | IC50 (MAP2K1 (MEK1)) [µM] | Assay 5: human liver S9 intrinsic clearance value (μL/min/mg protein) ([1]; human liver S9) | half-life at 1 μM ([1]; pH 7.4, Table 1, human liver S9 fraction, 1 μM test compound, 2 mg/mL S9 protein, NADPH, read-out: Liver S9 t1/2) [min] | microsomal CLint at 1 μM ([1]; pH 7.4, Table 1, human liver S9 fraction, read-out: CLint (μL/min/mg protein)) [µL/min/mg] | Compound | p-ERK in human cutaneous neurofibroma explants [2] | toxicity of topical application (C57BL/6J mice)
1 | 0.256 | 57.15 | 6 | 57.1 | O=C(NOCCO)c1c(Nc2ccc(I)cc2F)sc2ncc(F)cc12 [Ex. 8, 2-((2-Fluoro-4-iodophenyl)amino)-N-(2-hydroxyethoxy)-5-fluorothieno[2,3-b]pyridine-3-carboxamide] | suppression of p-ERK | –
2 | – | – | – | – | CC(=O)Nc1cccc(-n2c(=O)n(C3CC3)c(=O)c3c(Nc4ccc(I)cc4F)n(C)c(=O)c(C)c32)c1 [trametinib] | – | found dead, or had to be sacrificed due to unacceptable weight loss; also recorded: significant toxicity
